How the values were obtained:
[1] = Evaluation 1: 20-μm pattern line width of transparent photosensitive composition; conditions: for 20-μm pattern line width: transparent composition, initiator 0.4 mmol
[2] = Evaluation 3: 20-μm pattern line width of black photosensitive composition; conditions: black composition (carbon black, cardo resin), initiator 0.4 mmol
Procedure, shortened: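 Composition spin-coated on glass to 1.0 μm dry thickness, dried 90 °C for 10 min, exposed at 10–80 mJ/cm^2 via high-pressure mercury lamp through 20 μm negative mask, developed in 0.1 wt % TMAH, rinsed. Line width of remaining cured film measured; larger width means higher sensitivity.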

[3] = Average transmittance of composition; type: physicochemical; conditions: photosensitive composition, quartz cell, optical path length 1 cm
Experimental: The average transmittance (%) of each of the photosensitive resin compositions obtained in Examples 1 to 9, Examples 2-1 to 2-10, and Comparative Examples 1 and 2 in the range of from 400 nm to 700 nm was measured with a spectrophotometer (manufactured by Hitachi High-Technologies Corporation, trade name: “U-3900H”, quartz cell, optical path length; 1 cm).

[4] = Solubility in PGME, PGMEA and ethyl lactate; type: physicochemical; conditions: for Solubility Ethyl lactate: in 100 parts by weight of ethyl lactate; for Solubility Ethyl lactate / Solubility PGMEA / Solubility PGME: room temperature; for Solubility PGMEA: in 100 parts by weight of propylene glycol monomethyl ether acetate; for Solubility PGME: in 100 parts by weight of propylene glycol monomethyl ether; for solubility (in words): photopolymerization initiator containing the compound
[5] = Absorption coefficient (absorbance of 0.001% solution in tetrahydrofuran); type: physicochemical; conditions: for Λ max (absorption maximum wavelength): 0.001% (wt/vol) in tetrahydrofuran, from 280 nm to 400 nm; for Absorption coefficient at 365 nm / Absorption coefficient at Λ max: 0.001% (wt/vol) solution in tetrahydrofuran
Procedure, shortened: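 Absorbance of a 0.001% (wt/vol) solution in tetrahydrofuran recorded by spectrophotometer. Absorption maximum wavelength (λmax) taken from the spectrum within 280–400 nm.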

[6] = Transmittance of transparent cured film; type: physicochemical; conditions: for Average transmittance (700 nm to 400 nm) Transparent cured film / Transmittance (400 nm) Transparent cured film: cured at exposure energy quantity 80 mJ/cm^2
Procedure, shortened: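 Films cured at 80 mJ/cm^2 exposure, otherwise prepared as in the earlier film evaluation. Spectrophotometer read in quartz cell, 1 cm path, giving transmittance (%) at 400 nm and average transmittance (%) over 400–700 nm.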

[7] = Evaluation 1: 20-μm pattern line width of transparent photosensitive composition; conditions: initiator 0.4 mmol, exposure energy quantity 30 mJ/cm^2
[8] = Decomposition point by thermal analysis (TG-DTA); type: physicochemical; conditions: 5.0 mg
Experimental: The compounds 1, 2, 4, 6, 8, 9, 11, 12, 13, 15, 16, D-1, D-3, D-4, D-7, D-8, D-9, D-12, D-14, D-15, D-20, C-1, and C-2 were each subjected to measurement with a thermal analysis apparatus (TG-DTA) (manufactured by Rigaku Corporation, trade name: “Thermo Plus EVO TG 8120”) by using 5.0 mg thereof.

[9] = exposure energy quantity 5 mJ/cm^2
[10] = exposure energy quantity 10 mJ/cm^2
[11] = exposure energy quantity 20 mJ/cm^2
[12] = exposure energy quantity 40 mJ/cm^2
[13] = photopolymerization initiator containing the compound

Average transmittance (700 nm to 400 nm) Solution [3] | solubility (in words) [4] | Λ max (absorption maximum wavelength) [5] | Absorption coefficient at 365 nm [5] | Absorption coefficient at Λ max [5] | Average transmittance (700 nm to 400 nm) Transparent cured film [6] | Transmittance (400 nm) Transparent cured film [6] | Decomposition point [8] | SMILES | 20-μm pattern line width [1, 9] | 20-μm pattern line width [1, 10] | 20-μm pattern line width [1, 11] | 20-μm pattern line width [1, 12] | 20-μm pattern line width ([2]; 10 mJ/cm^2) | 20-μm pattern line width ([2]; 20 mJ/cm^2) | 20-μm pattern line width ([2]; 40 mJ/cm^2) | 20-μm pattern line width ([2]; 60 mJ/cm^2) | 20-μm pattern line width ([2]; 80 mJ/cm^2) | Solubility Ethyl lactate [4] | Solubility PGMEA [4] | Solubility PGME [4] | also measured
87.0% | additionally excellent solubility | 335.5 nm | 10.9 mL/mg/cm | 52.1 mL/mg/cm | 100.0% | 98.0% | 182.6 °C | CCCC1(CCC)c2cc(C(=O)c3ccc([N+](=O)[O-])cc3)ccc2-c2ccc(C(=NOC(C)=O)C(C)C)cc21 (mixture of isomers) [Compound D-8] | 19.1 | 19.7 | 20.0 | 21.9 | 18.7 | 18.7 | 20.0 | 20.7 | 21.1 | A (10 Parts by weight or more of the photopolymerization initiator is dissolved.) | A (10 Parts by weight or more of the photopolymerization initiator is dissolved.) | A (10 Parts by weight or more of the photopolymerization initiator is dissolved.) | transparency of photosensitive composition and formed product (in words) [6, 13]: additionally excellent transparency; 20-μm pattern line width [7]: 21.3
86.0% |  | 341.5 nm | 21.9 mL/mg/cm | 62.9 mL/mg/cm | 99.3% | 96.1% | 250.3 °C | CCCC1(CCC)c2cc(C(=O)c3ccc([N+](=O)[O-])cc3)ccc2-c2ccc(C(C)=NOC(C)=O)cc21 [Compound D-7] | 19.3 | 20.2 | 20.8 | 22.6 |  |  |  |  |  | D (Less than 2 parts by weight of the photopolymerization initiator is dissolved.) | D (Less than 2 parts by weight of the photopolymerization initiator is dissolved.) | D (Less than 2 parts by weight of the photopolymerization initiator is dissolved.) | 20-μm pattern line width [7]: 21.4
79.9% | additionally excellent solubility | 345.5 nm | 39.0 mL/mg/cm | 58.4 mL/mg/cm | 99.7% | 93.6% | 174.7 °C | CCCC1(CCC)c2cc(C(CCCCl)=NOC(C)=O)ccc2-c2ccc([N+](=O)[O-])cc21 [Compound D-12] | 19.8 | 20.6 | 21.4 | 22.3 | 19.1 | 20.5 | 21.6 | 22.5 | 22.7 | B (An amount in the range of from 5 parts by weight or more to less than 10 parts by weight of the photopolymerization initiator is dissolved.) | A (10 Parts by weight or more of the photopolymerization initiator is dissolved.) | A (10 Parts by weight or more of the photopolymerization initiator is dissolved.) | sensitivity to the active energy ray (in words) [1, 13]: additionally high sensitivity to the active energy ray; 20-μm pattern line width ([1]; exposure energy quantity 80 mJ/cm^2): 23.3

Reference: patent US9684238B2, “Fluorene-type compound, photopolymerization initiator comprising said fluorene-type compound, and photosensitive composition containing said photopolymerization initiator” (TOKYO OHKA KOGYO CO., LTD., priority 2012, dated 2017)
